Assay results as given in patent US20220387457A1 (Qlaris Bio, Inc., priority 2020, published 2022).

Key:
[1] = system: Dutch-belted pigmented rabbits (IOP); settings: previously reported; cited from earlier work
5′-nucleotidase = experiment: Conversion of CKLP1 by 5′-nucleotidase, LC/MS-MS, pH 7.4; type: biochemical, human; settings: up to 2 hours
Procedure: Conversion of CKLP1 (200 μM-5.0 mM) was examined by LC/MS-MS following incubation at pH 7.4 with either human alkaline phosphatase (ALP), acid phosphatase, or 5′-nucleotidase (2.01 nM-1.0 μM) for up to 2 hours.

[2] = In vitro conversion of CKLP1 to levcromakalim in human ocular tissues and fluids; type: in vitro ADME; settings: 10 μM CKLP1, 37° C.
Procedure: Aqueous humor was collected from each eye and combined in a single 1.5-mL tube. The eyes were then bisected at the equator, and vitreous humor was collected from both eyes, combined, and placed in a 15-mL conical tube and centrifuged at 1500 rpm for 10 minutes. Following centrifugation, the upper supernatant phase (less viscous region) was isolated and placed in a 1.5-mL tube. Tubes containing aqueous and vitreous humor were stored on ice. The following tissues were dissected from the eyes: cornea, retina, optic nerve, sclera, iris, ciliary body, and trabecular meshwork. The tissue samples were placed in 1.5-mL tubes containing approximately 200 μL of 50 mM Tris buffer pH 7.1. Each sample, except for the optic nerve sample, contained tissue from both eyes. Samples were stored on ice. Tissues were independently homogenized with a Polytron PT 1200 (setting 8) and placed on ice. The trabecular meshwork was lysed using a small pestle. In between samples, the homogenizer was cleaned and washed thoroughly with a minimum of 200 mL of distilled water.
Remaining tissue and debris were pelleted in an Eppendorf 5415C centrifuge at 13,000 rpm for 2 minutes. Supernatants were isolated and placed in clean 1.5-mL tubes. A Bradford protein assay was performed with 5 μL of supernatant of each sample. At the completion of the assay, 200-μL aliquots of each sample were placed in a 96-well plate, and protein concentrations were read using a TECAN Infinite® M200 plate reader at 595 nm. The final concentrations for all samples was 150 μg of protein in a solution of 10 μM CKLP1, except for vitreous humor, which only contained 100 μg of protein in 10 μM CKLP1 due to low protein concentration. There were 18 samples in total. Samples were mixed, briefly centrifuged and then, for each sample, a 100-μL portion was removed and placed in a new tube so that both tubes contained 100 μL (75 μg of protein each except vitreous humor, which contained 50 μg each). All pairs of samples were placed in incubation at 37° C. For each pair of tubes, one tube was incubated for 4 hours and one tube for 24 hours. At the completion of the incubation period, 200 μL of acetonitrile was added to each tube and mixed. Tubes were briefly centrifuged and placed at −80° C.

hound dogs = experiment: Histology, blood chemistry and tolerability after bilateral topical CKLP1 in hound dogs
Source text: To evaluate local and systemic side effects of bilateral topical administration of CKLP1 to the eyes, additional tissue samples were harvested for histological examination. Tissues collected and fixed during necropsy were processed into paraffin blocks, sectioned, and stained with hematoxylin and eosin.

[3] = system: hound dogs (systemic blood pressure); experiment: Systemic blood pressure in hound dogs during 61-day topical CKLP1; type: in vivo, hound dog; settings: 10 mM CKLP1 topical once daily
Procedure: To evaluate the effect of IOP lowering long-term, hound dogs (n=5) were treated with 10 mM CKLP1 in one eye and vehicle (PBS) in the contralateral eye once daily for 61 consecutive days. […] On average, IOP was reduced by 18.9±1.3% (reduction of 3.0±0.5 mmHg; p<0.001) in all five hound dogs over the entire treatment period. Additionally, no significant change in systolic (baseline, 141.0±6.7; treatment, 138.9±9.5; p=0.56) or diastolic (baseline, 80.1±8.9; treatment, 78.1±5.9; p=0.76) blood pressure was observed during the treatment period (FIG. 7B). Hound dogs were also evaluated for eye redness, swelling of the eye or eyelids, unusual discharge from eye and overall food intake.
For the extended dose study, baseline IOPs were measured three times daily for 5 consecutive days. The average of the three measurements was recorded as the daily IOP and averaged over the 5 days for the final pre-treatment value. Following baseline IOP measurements, dogs (n=5) were treated with 10 mM CKLP1 in one eye, while the contralateral eye received vehicle (PBS). IOP was measured at least three times every week at times corresponding to 1, 4, and 23 hours post treatment. Blood pressure was measured three times each week at the 4 hour post treatment time point.

[4] = system: α-SMA, CD31, endothelin-I, fibronectin, VE-cadherin, phospho-eNOS and total eNOS; experiment: Protein expression (western blot, immunocytochemistry) in 3D HTM/SC constructs; type: cell-based, human; settings: levcromakalim 1, 10 or 100 μM; Y-27632 10 μM
Procedure: Bioengineered 3D conventional outflow tract constructs using 4 donors (ages 47-91) were treated with […] (5 ng/mL) for 6 days. […] Protein expression of α-smooth muscle actin (α-SMA), CD31, endothelin-I, fibronectin, VE-cadherin, phospho-eNOS and total eNOS was analyzed via western blot. Cellular expression of α-SMA, fibronectin, phospho-eNOS and total eNOS was determined by immunocytochemistry and confocal microscopy. Statistical significance was determined by one-way ANOVA with a Tukey's multiple comparisons test, or by two-way ANOVA.

SMILES	IOP lowered by [1] [%]	conversion of CKLP1 to levcromakalim (5′-nucleotidase)	conversion of CKLP1 to levcromakalim over 24 hours ([2]; human aqueous humor)	conversion of CKLP1 to levcromakalim over 24 hours ([2]; human ciliary body) [%]	conversion of CKLP1 to levcromakalim over 24 hours ([2]; human cornea) [%]	conversion of CKLP1 to levcromakalim over 24 hours ([2]; human iris) [%]	conversion of CKLP1 to levcromakalim over 24 hours ([2]; human optic nerve) [%]	conversion of CKLP1 to levcromakalim over 24 hours ([2]; human retina) [%]	conversion of CKLP1 to levcromakalim over 24 hours ([2]; human sclera) [%]	conversion of CKLP1 to levcromakalim over 24 hours ([2]; human trabecular meshwork) [%]	conversion of CKLP1 to levcromakalim over 24 hours ([2]; human vitreous humor)	overall tolerability, ocular or systemic toxicity (hound dogs; bilateral eye treatment with CKLP1)	histology of 40 different tissues (hound dogs; bilateral topical 10 mM CKLP1, 12-13 days)	blood chemistry (hound dogs; bilateral topical 10 mM CKLP1, except albumin, slightly lower in treated and control)	diastolic blood pressure during treatment ([3]; baseline 80.1±8.9, p=0.76) [mmHg]	systolic blood pressure during treatment ([3]; baseline 141.0±6.7, p=0.56) [mmHg]	expression of the cell adhesion proteins CD31 and VE-Cadherin [4]
CC1(C)Oc2ccc(C#N)cc2[C@@H](N2CCCC2=O)[C@@H]1OP(=O)(O)O [CKLP1]	~16	not	not	2.6	0.8	3.9	0.9	0.7	1.6	1.6	not	well tolerated and did not result in any observed ocular or systemic toxicity	none of the analyzed tissues showed any significant pathology	within normal range	78.1±5.9	138.9±9.5	–
CC1(C)Oc2ccc(C#N)cc2[C@@H](N2CCCC2=O)[C@@H]1O [Levcromakalim, levcromakalim, reference compound]	–	–	–	–	–	–	–	–	–	–	–	–	–	–	–	–	did not significantly affect
